From patent US20260200971A1, “METHODS FOR ISOLATING, DETECTING, AND QUANTIFYING INTERCELLULAR PROTEINS” (Fred Hutchinson Cancer Center, priority 2022, published 2026)

Tests used:
Streptavidin = Streptavidin (Streptomyces avidinii, UniProt P22629); details: binding to streptavidin; cited from earlier work
MCF7:PIK3CA-mutant cells = experiment: CyQuant proliferation assay, alpelisib dose response, PIK3CA mutant cells; assay type: cell-based; details: estrogen deprived conditions, 5 days
Description: (§1) Dose response curves are shown for three different MCF7 sublines (MCF7:WS8, MCF7:PIK3CA-mutant, MCF7:PIK3CA-WT) in response to treatment with fulvestrant or alpelisib. Proliferation was determined by a CyQuant genomic DNA quantification. Individual points represent the mean of n=8 replicate wells. Curves represent the least-squares fit of the Hill equation. Error bands represent the 95% confidence interval of the fit, as determined using the gradient method.
(§2) The MCF7 cell line harbors two activating E545K mutant PIK3CA alleles. To evaluate the relationship between PIK3CA mutation, AREG expression, and drug resistance, the MCF7 parental line was compared to a previously published isogenic MCF7 line with a wildtype (WT) PIK3CA knock in, which has both mutant alleles corrected (see Beaver et al., Clin. Cancer Res. 19:5413-5422, 2013). […] Then, under estrogen deprived conditions, the growth of MCF7 PIK3CA mutant or MCF7:PIK3CA-WT cells was assessed over 5 days in the presence of varying doses of alpelisib (a PI3K inhibitor) (FIGS. 9B and 9C). Proliferation was quantified by an end-point genomic DNA quantification (CyQuant), and then the concentration-response curve was fit to a Hill equation to extract the IC50 and the asymptotic proliferation in the limit of infinite drug […].

MCF7:PIK3CA-WT cells = experiment: CyQuant proliferation assay, alpelisib dose response, PIK3CA-WT cells; assay type: cell-based; details: estrogen deprived conditions, 5 days
Description: as §1, §2

HCC70 spheroids [1] = experiment: Streptavidin dot blot of lysates from labeled 3D cultures; assay type: cell-based; details: for streptavidin binding signal, hydrogels containing HCC70 cells versus cell-free EHS matrix: fully embedded EHS matrix hydrogel (7-10 mg/mL protein)
Description: To evaluate the extent to which the streptavidin signal produced was due to reactions with azide-labeled proteins, HCC70 breast cancer cell spheroids were cultured in 2% EHS matrix suspension culture with or without azidohomoalanine.
To assess the specificity of the labeling, streptavidin dot blots were performed with homogeneous lysates prepared from each of the labeling conditions. Additionally, unlabeled lysate was included to account for non-specific binding of the streptavidin reagent, itself. […] As a non-specific reaction control, the same labeling conditions were evaluated in “empty” EHS matrix hydrogels, which contained no cells. […] After labeling and washing the samples, homogeneous lysates of all conditions were prepared.
Generation of fully embedded 3D HCC70 cultures. HCC70 spheroids were first seeded in suspension in 2% EHS matrix (following one passage in 3D suspension culture). After allowing spheroids to form for 24 hours, the spheroids were pelleted, the supernatant was aspirated, and the spheroids were directly resuspended in ice-cold EHS matrix (undiluted from the manufacturer's preparation at a typical concentration of 7-10 mg/mL). Resuspension was achieved by slow pipetting up and down forty times on ice with pipette tips that were pre-chilled at −20° C. Next, EHS matrix “domes” were created by pipetting thirty microliters of the EHS matrix/spheroid suspension directly into the center of the well of a 24-well plate with a No. 1.5 polymer coverglass bottom. The plate was flipped upside down to prevent spheroids from settling onto the coverglass, and the plate was incubated at 37° C., 5% CO2, for 1 hour to allow the EHS matrix to form an elastic hydrogel. The domes were then covered with complete cell culture media (1 mL per well) and cultured at 37° C., 5% CO2.
Streptavidin dot blot analysis. Spheroid lysates were prepared as described above. […]
MCF7:WS8 cells [2] = experiment: Click labeling and PEA (Olink Explore 3072) differential intercellular protein expression; assay type: cell-based
Description: PEA was used to quantify protein abundance in MCF7:WS8 cells treated with estradiol (1 nM) and fulvestrant concomitantly or with estradiol (1 nM) alone. Proteins from cells treated with or without fulvestrant were ranked by a log 2-fold change in abundance and by a false-discovery rate and identified.
The eluted protein fraction was then subjected to proximity extension assay-based quantification using the Olink® Explore protocol to quantify the abundance of proteins in a 3072-plex panel.
Intercellular protein discovery by the proximity extension assay and NPX normalized protein abundance calculation. Proteins were measured using the Olink® Explore 3072 panel (Olink Proteomics AB, Uppsala, Sweden) according to the manufacturer's instructions. For each experimental replicate, eighty microliters of elution solution (representing labeled proteins from eight hundred thousand cells), was used directly for the Olink Explore protocol.
MCF7:WS8 cells [3] = experiment: CyQuant genomic DNA proliferation assay, fulvestrant dose response; assay type: cell-based; details: estradiol 1 nM; for IC50: Hill equation fit
Description: as §1
Given that AREG induction by estradiol supports estradiol-dependent proliferation, the expectation was that constitutive overexpression of AREG would confer resistance to drugs that inhibit estrogen signaling (e.g., fulvestrant). […] The proliferation of each cell line was evaluated in the presence of estradiol (1 nM) and varying concentrations of fulvestrant using a genomic DNA quantification assay (CyQuant). The Hill equation was then used to determine the IC50 of each cell line following fulvestrant treatment (FIG. 9A). […] Therefore, targeting AREG signaling may alleviate endocrine therapy resistance.

HCC70 spheroids [4] = experiment: Confocal fluorescence microscopy of probe labeling in 3D spheroid culture with 2% EHS matrix; assay type: cell-based; details: azidohomoalanine 24 hours, probe 30 minutes at 37 degrees Celsius, streptavidin Alexa-Fluor 488
Description: To do this, 3D organotypic suspension cultures of the HCC70 breast cancer cell line were generated in the presence of EHS matrix. Next, spheroids were labeled with 500 pM azidohomoalanine for 24 hours, and after washing excess reagent, incubated the spheroids with each of the heterobifunctional probes (three hundred micromolar concentration, 30 minutes at 37 degrees Celsius). […] The samples were also counterstained with DAPI and Phalloidin to visualize the nuclei and the cell surface (F-actin in the HCC70 cells is subcortically localized near the membrane). Lastly, confocal fluorescence microscopy was used to qualitatively assess the spatial distribution of streptavidin labeling in all conditions (FIG. 2).
Azidohomoalanine labeling of 3D HCC70 cultures in 2% EHS matrix. 3D suspension cultures of HCC70 cells in 2% EHS matrix were generated from 2D monolayer culture (as described above), dissociated once, and then plated in fresh 2% EHS matrix. After 48 hours of culture, spheroids were washed three times to remove excess methionine by centrifuging at 200×g for 3 minutes, aspirating the supernatant and resuspending in PBS (with calcium and magnesium). Azidohomoalanine containing media was freshly prepared by diluting a 500 mM azidohomoalanine DMSO stock solution 1,000-fold in methionine reduced 2% EHS matrix suspension media. The washed spheroids were resuspended in azidohomoalanine-containing 2% EHS matrix suspension media (in the same volume as the original suspension), plated in 6-well ultra-low attachment plates, and incubated in TC incubator at 37° C., 5% CO2 for 24 hours.
Spheroids were cultured for 24 hours in the presence of azidohomoalanine to allow the azidohomoalanine to be incorporated into newly synthesized proteins at methionine residues. After 24 hours, spheroids were washed three times with PBS (containing calcium and magnesium) to remove unincorporated azidohomoalanine by centrifugation at 200×g for 1 minute, aspiration of the supernatant, and resuspension in the PBS wash buffer. […]

TAMR cells = experiment: Click labeling and PEA (Olink Explore 3072) differential intercellular protein expression; assay type: cell-based; details: tamoxifen (100 nM) + estradiol versus estradiol, FDR<0.05, therapy resistant cells
Description: Three-dimensional cultures of MCF7:WS8 cells and TAMR cells were generated in 2% EHS matrix suspension. Spheroids were treated with either 1) estradiol (10 nM) or 2) estradiol (10 nM) and tamoxifen (100 nM). […] The eluted protein fraction was then subjected to proximity extension assay-based quantification using the Olink® Explore protocol to quantify the abundance of proteins in a 3072-plex panel.
First, a tamoxifen-induced protein signature was developed for each line by comparing how each cell line responded to tamoxifen treatment. Next, the log 2-fold change enrichment was quantified for cells treated with or without tamoxifen.
MCF7 cells were seeded, as described above, in estrogen-depleted 2% EHS matrix suspension culture (containing charcoal-stripped FBS and phenol red free) for 24 hours to create estrogen-starved spheroids. […]
Proteins were measured using the Olink® Explore 3072 panel (Olink Proteomics AB, Uppsala, Sweden) according to the manufacturer's instructions. […] Libraries were subjected to a bead-based purification and quality was assessed using an Agilent 2100 bioanalyzer (Agilent Technologies, Palo Alto, CA). […]

[5] = system: Laminin B1, Laminin C1, and Nidogen; experiment: LC/MS label-free quantification of EHS matrix proteins in eluted fraction versus starting lysate; details: HCC70 spheroids, 2% EHS matrix, streptavidin enrichment and elution with free biotin
Description: Compositions of the EHS matrix vary from lot-to-lot, but three of the most abundant proteins EHS matrix preparations are known to be Laminin B1, Laminin C1, and Nidogen. LC/MS proteomics were performed on crude lysates prepared from organotypic cultures of HCC70 spheroids in 2% EHS matrix. As expected, the most abundant proteins in these crude lysates were the EHS matrix proteins, Laminin B1, Laminin Cl, and Nidogen (FIG. 5A). This was true regardless of whether the peptide search was performed against the human or mouse proteome, due to high sequence homology of these proteins between both species. […] Protein concentration of crude lysates was determined using a Pierce BCA assay kit (Thermo Fisher Scientific #23225) according to the manufacturer's protocol. […] Desalted samples were brought up in 2% acetonitrile in 0.1% formic acid and were analyzed by LC/ESI MS/MS with a Thermo Scientific Easy-nLC 1000 (Thermo Scientific, Waltham, MA) nano HPLC system coupled to a tribrid Orbitrap Fusion (Thermo Scientific, Waltham, MA) mass spectrometer. […] Label-free quantification data analysis of LC/MS samples. […] In the specific case in which the abundance of EHS matrix proteins was evaluated, a search was also performed against the Uniprot Mus musculus files (however, due to sequence homology the same conclusions were drawn regardless of whether the Mus musculus database was included in the search). […]

Claudin 7 = experiment: Streptavidin bead capture, elution and Claudin 7 western blot; design: species or system human; details: HCC70 spheroids, mild competitive elution with free biotin versus denaturing elution
Description: After lysing the spheroids, biotinylated or desthiobiotinylated proteins were captured using streptavidin-functionalized magnetic polystyrene beads. The unbound fraction was also collected to evaluate the capture efficiency. […] This competitive elution was performed in two sequential incubations at 37° C. and 4° C. The recovery of Claudin 7 was used to evaluate the efficiency with which full-length intercellular proteins were released from the magnetic bead. Claudin 7 is a well-known tight-junction protein associated with intercellular adhesions (FIG. 4A), and it is localized to the pericellular zones in HCC70 spheroids (FIG. 4D). Next, western blots against Claudin 7 were performed in the eluted fraction from the streptavidin pull-down, and the signal intensity of Claudin 7 from the 15 μg of HCC70 spheroid starting lysate was evaluated. […] Streptavidin magnetic bead enrichment. […] For every 100 μL of sample, 200 μL of the 10 mg/mL magnetic bead suspension were used. […] Next a magnetic bead pellet was prepared by separating the beads on a magnetic stand and removing the supernatant. […] Western blot and dot blot quantification. Western blot quantification was performed using ImageJ. […] Integrated fluorescence intensity was calculated using the “Measure” tool, and the background-corrected integrated fluorescence intensity was computed for each band.

[6] = system: breast epithelial MCF10A cells; details: 2D culture, exogenous media supplement; cited from earlier work

Streptavidin, sequence (P22629 25-183, species assumed): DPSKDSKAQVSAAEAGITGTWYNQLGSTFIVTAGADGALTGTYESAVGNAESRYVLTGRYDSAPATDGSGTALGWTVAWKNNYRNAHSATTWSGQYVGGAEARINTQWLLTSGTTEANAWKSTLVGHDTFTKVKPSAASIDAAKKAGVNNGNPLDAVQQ

C[C@@H]1NC(=O)N[C@@H]1CCCCCC(=O)O [Desthiobiotin]
Kd (Streptavidin): 0.00066 µM | Koff (Streptavidin): 0.018 s⁻¹ | Kon (Streptavidin): 2.7e7 1/M 1/s

Cc1nc(NC(=O)N2CCC[C@H]2C(N)=O)sc1-c1ccnc(C(C)(C)C(F)(F)F)c1 [alpelisib]
increase in IC50 by AREG overexpression (MCF7:PIK3CA-mutant cells): 4 fold | effect of AREG overexpression on alpelisib response (MCF7:PIK3CA-WT cells): no effect

[N-]=[N+]=NCC[C@H](N)C(=O)O [azidohomoalanine]
streptavidin binding versus non-labeled azidohomoalanine controls (HCC70 spheroids [1]; 2% EHS matrix suspension, DBCO-PEG4-Desthiobiotin labeling): 10 fold

C[C@]12CC[C@@H]3c4ccc(O)cc4CC[C@H]3[C@@H]1CC[C@@H]2O [estradiol]
number of proteins upregulated by at least 2-fold (MCF7:WS8 cells [2]; estradiol versus estrogen-deprived controls, FDR<0.05): at least 188 proteins

C[C@]12CC[C@@H]3c4ccc(O)cc4C[C@@H](CCCCCCCCC[S+]([O-])CCCC(F)(F)C(F)(F)F)[C@H]3[C@@H]1CC[C@@H]2O (stereo partly drawn) [fulvestrant]
IC50 (MCF7:WS8 cells [3]; MCF7:WS8, AREG overexpression line): 0.255 µM | IC50 (MCF7:WS8 cells [3]; MCF7:WS8, control line (ORF stuffer)): 0.034 µM | increase in IC50, AREG overexpression versus control (MCF7:WS8 cells [3]): 7.5 fold | most significantly upregulated intercellular protein (MCF7:WS8 cells [2]; estradiol (1 nM) + fulvestrant versus estradiol (1 nM) alone, FDR<0.05): ITGB6

O=C1N[C@H]2[C@H](CS[C@H]2CCCCC(=O)ON2C(=O)CC(S(=O)(=O)[O-])C2=O)N1.[Na+] (stereo partly drawn) [sulfo-NHS-biotin]
streptavidin binding signal, hydrogels containing HCC70 cells versus cell-free EHS matrix (HCC70 spheroids [1]): equal | labeling of the pericellular zone / intercellular spaces (HCC70 spheroids [4]): unable to diffuse into intercellular zones of the organoids

CC/C(=C(\c1ccccc1)c1ccc(OCCN(C)C)cc1)c1ccccc1 [tamoxifen]
number of proteins upregulated at least 2-fold in response to tamoxifen (TAMR cells): forty-three | number of proteins upregulated at least 2-fold in response to tamoxifen (MCF7:WS8 cells [2]; tamoxifen (100 nM) + estradiol versus estradiol, FDR<0.05, therapy sensitive cells): Thirty

DBCO-PEG4-Desthiobiotin
lower normalized abundance of Laminin B1, Laminin C1 and Nidogen versus starting lysates [5]: over 10 fold | streptavidin binding signal, hydrogels containing HCC70 cells versus cell-free EHS matrix (HCC70 spheroids [1]): 10 fold | labeling of the pericellular zone / intercellular spaces (HCC70 spheroids [4]): exhibited pericellular labeling | recovery of Claudin 7 compared to the DBCO-sulfo-biotin samples (Claudin 7): 10 fold

DBCO-sulfo-Biotin
labeling of the pericellular zone / intercellular spaces (HCC70 spheroids [4]): exhibited pericellular labeling

B1: recombinant amphiregulin: recombinant amphiregulin (AREG), EGF receptor family ligand (protein, UniProt P15514 101-187, looked up)
Amphiregulin: SVRVEQVVKPPQNKTESENTSDKPKRKKKGGKNGKNRRNRKKKNPCNAEFQNFCIHGECKYIEHLEAVTCKCQQEYFGERCGEKSMK
modifications: Amphiregulin
notes: recombinant amphiregulin (AREG), EGF receptor family ligand
concentrations at which activity is exhibited [6]: 5 to 50 ng/mL
